Experimental data from patent publication US6136552A, “High-affinity salicylic acid-binding protein and methods of use” (Rutgers, The State University of New Jersey, priority 1997, dated 2000).
Like-named read-outs stand apart in the source and are kept apart here.

Assays:
[1] = molecular target: T1, SABP2 (Nicotiana tabacum, UniProt Q6RYA0); assay: [3H]SA competition assay with unlabeled SA and SA analogues; format: binding, tobacco
T1 construct: Soluble proteins were extracted from the powdered leaves; from tissue; host or cells: tobacco leaf (cv. Xanthi nc), 50-75% ammonium sulfate fraction
T1 sequence (Q6RYA0 1-260): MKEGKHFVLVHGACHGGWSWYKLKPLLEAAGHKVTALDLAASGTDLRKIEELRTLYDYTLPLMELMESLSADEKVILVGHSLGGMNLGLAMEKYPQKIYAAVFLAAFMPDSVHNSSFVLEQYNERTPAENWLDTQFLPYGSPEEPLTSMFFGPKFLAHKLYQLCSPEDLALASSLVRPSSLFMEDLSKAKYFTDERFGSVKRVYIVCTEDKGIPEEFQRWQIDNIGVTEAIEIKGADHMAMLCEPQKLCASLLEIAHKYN
Description: (§1) [3H]SA binding and competition assays. […] Spin columns were prepared by packing Sephadex G25 gel (exclusion limit 5 kDa; Pharmacia), which was pre-equilibrated in buffer A, in a 1-mL disposable syringe and centrifuging at 1,000 g for 4 minutes at 4° C. This process was repeated until the bed volume of the spin column reached 1 mL. One additional spin with 125 μL buffer A was performed under the same centrifugation conditions. The binding mixture (125 μL) was loaded onto the spin column and immediately centrifuged. […] When no protein extract was included in the binding mixture, the background radioactivity level was 33±3 dpm/100 μL. For the boiling treatment, the extract was boiled for 5 minutes and denatured protein aggregates were removed by centrifugation at 12,000 g for 1 minute.

[2] = molecular target: T1, SABP2; assay: [3H]SA binding assay (kinetics, reversibility, saturation, Scatchard plot); parameters: species or system tobacco; conditions: for time until binding is complete / approaches equilibrium: 0-4° C.
Description: as §1

[3] = molecular target: T2, catalase (Nicotiana tabacum, UniProt P49319); conditions: cited from earlier work
T2 construct: has been identified in tobacco leaf extracts; host or cells: tobacco leaf extracts
T2 sequence (P49319 1-492): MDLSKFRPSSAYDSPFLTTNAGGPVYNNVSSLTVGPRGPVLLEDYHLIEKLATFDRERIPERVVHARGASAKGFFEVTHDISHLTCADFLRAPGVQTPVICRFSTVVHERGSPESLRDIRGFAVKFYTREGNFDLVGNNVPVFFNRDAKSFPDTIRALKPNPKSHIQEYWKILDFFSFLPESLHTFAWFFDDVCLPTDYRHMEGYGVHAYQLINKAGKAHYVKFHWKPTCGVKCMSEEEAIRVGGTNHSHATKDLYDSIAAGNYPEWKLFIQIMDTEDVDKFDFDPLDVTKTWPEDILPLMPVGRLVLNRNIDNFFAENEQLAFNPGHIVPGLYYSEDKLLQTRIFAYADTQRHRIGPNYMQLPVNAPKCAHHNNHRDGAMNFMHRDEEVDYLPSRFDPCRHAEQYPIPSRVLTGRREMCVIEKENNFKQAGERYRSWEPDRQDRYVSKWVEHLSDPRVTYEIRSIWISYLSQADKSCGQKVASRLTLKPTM

[4] = tested on: PR gene expression and enhanced disease resistance; parameters: key to Biological activity: +, active; -, inactive; conditions: cited from earlier work; for Biological activity: based on FIG. 7 and literature
[5] = molecular target: T3, tobacco catalase (Nicotiana tabacum, UniProt P49319); conditions: cited from earlier work
T3 construct: tobacco catalase activity in suspension cells and in crude leaf extracts; host or cells: tobacco suspension cells, crude leaf extracts, purified enzyme
T3 sequence (P49319 1-492): T2 sequence (P49319 1-492)

[6] = tested on: APX; conditions: cited from earlier work
[7] = tested on: PR-1 gene expression; assay: Induction of PR-1 gene expression in leaf discs (northern blot); format: cell-based, tobacco; conditions: Nicotiana tabacum, foliar, 24 hours after treatment, read-out: concentration giving 15-fold induction of PR-1 gene expression
Text: As a control, rRNA present in each lane is also shown. FIG. 7B is a graph showing quantification of the fold-induction of the PR-1 mRNA levels after SA (.cndot.) and BTH (.smallcircle.) treatment. The levels of PR-1 mRNA were normalized to the amounts of rRNA. The rRNA-normalized levels of PR-1 mRNA obtained after infiltration of leaf discs with SA or BTH were divided by the rRNA-normalized level of PR-1 mRNA obtained after infiltration with water only to determine the fold induction. The data presented are from a single experiment; two additional experiments were done. The maximum-fold induction of the PR-1 genes and the concentrations of SA and BTH required to reach approximately 50% of this value varied somewhat among the three experiments, depending on the age of the plant. In the three experiments, the concentrations of BTH needed to reach approximately 50% induction were 30- to 40-fold lower than those for SA.

[8] = molecular target: T3, tobacco catalase; assay: Inhibition of catalase activity; format: biochemical; conditions: unpublished data
[9] = tested on: tobacco catalase; conditions: in vivo; cited from earlier work
[10] = 50-75% fraction, 0.1 μM [3H]SA, on ice 2 hours, estimated from FIG. 6, read-out: IC50 of competition for [3H]SA binding

O=C(O)c1ccccc1O [SA, salicylic acid]
IC50 [1]: 1.5 µM | time until binding is complete / approaches equilibrium [2]: 15 to 20 min | inhibition at 1000 µM ([2]; 50-75% fraction, 1 mM SA, 0.1 μM [3H]SA, read-out: reduction of binding activity in the presence of excess unlabeled SA): 85% | remaining activity at 1000 µM ([2]; 100% = binding after 160 minutes of incubation, read-out: [3H]SA binding remaining after addition of 1 mM SA): < 10% | Kd ([2]; Scatchard plot, 50-75% fraction): 0.09 µM | Kd ([3]; [14C]SA, tobacco leaf extracts, read-out: Kd of SA binding to catalase): 14 µM | time until binding to catalase approaches equilibrium [3]: 90 to 120 min | Biological activity [4]: + | Biologically active / inactive (FIG. 6 legend) ([4]; in vivo): Biologically active | SA level required for effective inhibition of catalase activity [5]: 50 to 300 µM | SA level required for effective inhibition of APX activity [6]: 50 to 300 µM

O=C(O)c1ccccc1O[C@@H]1O[C@H](CO)[C@@H](O)[C@H](O)[C@H]1O [SA β-glucoside]
induction of disease resistance ([4]; in vivo): not active

CSC(=O)c1cccc2nnsc12 [BTH, benzo(1,2,3)thiadiazole-7-carbothioic acid S-methyl ester]
IC50 [1]: 0.1 µM | EC (15-fold) [7]: ~3.3 µM | catalase inhibition compared with SA [8]: more effective inhibitor of catalase than SA | Biological activity [4]: + | Biologically active / inactive (FIG. 6 legend) ([4]; in vivo): Biologically active

O=C(O)c1ccccc1O [[^3 H]SA]
time until binding is complete / approaches equilibrium [2]: approximately 20 minutes | half association time ([2]; 50-75% fraction): 5 min

O=C(O)c1ccc(O)cc1 [4-hydroxybenzoic acid]
IC50 [1, 10]: > 1000 µM | Biological activity [4]: - | Biologically active / inactive (FIG. 6 legend) ([4]; in vivo): biologically inactive

O=C(O)c1cc(Cl)nc(Cl)c1 [INA, 2,6-dichloroisonicotinic acid]
IC50 [1]: 70 µM | Biological activity [4]: + | Biologically active / inactive (FIG. 6 legend) ([4]; in vivo): Biologically active | inhibition of catalase activity in crude extracts ([5]; crude extracts): less effective at inhibiting catalase activity in crude extracts | inhibition of purified tobacco catalase ([5]; purified enzyme): fails to inhibit purified tobacco catalase | inhibition of tobacco catalase in vivo [9]: effectively blocks tobacco catalase in vivo

O=C(O)c1cccc(O)c1 [3-hydroxybenzoic acid]
IC50 [1, 10]: 105 µM | Biological activity [4]: - | Biologically active / inactive (FIG. 6 legend) ([4]; in vivo): biologically inactive

O=C(O)c1c(O)cccc1O [2,6-dihydroxybenzoic acid]
IC50 [1, 10]: 2 µM | Biological activity [4]: + | Biologically active / inactive (FIG. 6 legend) ([4]; in vivo): Biologically active

O=C(O)c1cc(Cl)ccc1O [5-chloroSA, 5-chlorosalicylic acid]
IC50 [1, 10]: 0.3 µM | Biological activity [4]: + | Biologically active / inactive (FIG. 6 legend) ([4]; in vivo): Biologically active

O=C(O)c1cc(O)ccc1O [2,5-dihydroxybenzoic acid]
IC50 [1, 10]: 20 µM | Biological activity [4]: - | Biologically active / inactive (FIG. 6 legend) ([4]; in vivo): biologically inactive
